Where “and” joins values, the source holds several entries; their conditions need not be identical. Equal values may be shown once.
System: 945468-187-T-J3-PDC spheroids with HUVEC/MSC, viability
Test: Anticancer human tumor 945468-187-T-J3-PDC patient-derived rectal carcinoma cell line growth inhibition [PI3K]
Settings: for viability, T/C: stronger effect = lower value; active = viability on the fitted dose curve at most 10% of control; inactive = the rest
Method in brief: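 Tumor cells grown as multi-cell spheroids with HUVEC endothelial cells and MSC fibroblast-like stroma were treated with targeted agents combined with inavolisib, alpelisib, duvelisib or copanlisib. Doses fell in half-log steps from near clinical Cmax, else from 10 microM. Viability was measured.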

[1] = curve of first compound, second compound 0.00316 µM
[2] = curve of first compound, second compound 0.01 µM
[3] = curve of first compound, second compound 0.0316 µM
[4] = curve of first compound, second compound 0.1 µM
[5] = curve of first compound, second compound 0.316 µM
[6] = curve of first compound, second compound 1 µM
[7] = second compound 0.00316 µM, first compound 0.0316 µM
[8] = second compound 0.00316 µM, first compound 0.1 µM
[9] = second compound 0.01 µM, first compound 0.0316 µM
[10] = second compound 0.01 µM, first compound 0.1 µM
[11] = second compound 0.0316 µM, first compound 0.000316 µM
[12] = second compound 0.0316 µM, first compound 0.001 µM
[13] = second compound 0.0316 µM, first compound 0.00316 µM
[14] = second compound 0.0316 µM, first compound 0.01 µM
[15] = second compound 0.0316 µM, first compound 0.0316 µM
[16] = second compound 0.0316 µM, first compound 0.1 µM
[17] = second compound 0.1 µM, first compound 0.000316 µM
[18] = second compound 0.1 µM, first compound 0.001 µM
[19] = second compound 0.1 µM, first compound 0.00316 µM
[20] = second compound 0.1 µM, first compound 0.01 µM
[21] = second compound 0.1 µM, first compound 0.0316 µM
[22] = second compound 0.1 µM, first compound 0.1 µM
[23] = second compound 0.316 µM, first compound 0.000316 µM
[24] = second compound 0.316 µM, first compound 0.001 µM
[25] = second compound 0.316 µM, first compound 0.00316 µM
[26] = second compound 0.316 µM, first compound 0.01 µM
[27] = second compound 0.316 µM, first compound 0.0316 µM
[28] = second compound 0.316 µM, first compound 0.1 µM
[29] = second compound 1 µM, first compound 0.000316 µM
[30] = second compound 1 µM, first compound 0.001 µM
[31] = second compound 1 µM, first compound 0.00316 µM
[32] = second compound 1 µM, first compound 0.01 µM
[33] = second compound 1 µM, first compound 0.0316 µM
[34] = second compound 1 µM, first compound 0.1 µM
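Also: spheroids exposed to agents for 7 days before viability read.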
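For viability, T/C in this document: 100% = DMSO vehicle control viability.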

CC(C)n1nc(-c2ccc3oc(N)nc3c2)c2c(N)ncnc21 + CC(Nc1ccc2c(c1)OCCn1cc(N3C(=O)OCC3C(F)F)nc1-2)C(N)=O
> 100 nM: IC50 [1] | IC50 [2]
27.4 nM: IC50 [5]
inactive: viability, T/C (second compound 0.00316 µM, first compound 0.000316 µM) 111% | viability, T/C (second compound 0.00316 µM, first compound 0.001 µM) 104% | viability, T/C (second compound 0.00316 µM, first compound 0.00316 µM) 109% | viability, T/C (second compound 0.00316 µM, first compound 0.01 µM) 116% | viability, T/C [7] 118% | viability, T/C [8] 71% | viability, T/C (second compound 0.01 µM, first compound 0.000316 µM) 102% | viability, T/C (second compound 0.01 µM, first compound 0.001 µM) 105% | viability, T/C (second compound 0.01 µM, first compound 0.00316 µM) 98.1% | viability, T/C (second compound 0.01 µM, first compound 0.01 µM) 111% | viability, T/C [9] 123% | viability, T/C [10] 63.4% | viability, T/C [11] 99.1% | viability, T/C [12] 94.5% | viability, T/C [13] 129% | viability, T/C [14] 110% | viability, T/C [15] 114% | viability, T/C [16] 46% | viability, T/C [17] 102% | viability, T/C [18] 107% | viability, T/C [19] 104% | viability, T/C [20] 126% | viability, T/C [21] 87.2% | viability, T/C [22] 36.7% | viability, T/C [23] 103% | viability, T/C [24] 104% | viability, T/C [25] 91% | viability, T/C [26] 77.8% | viability, T/C [27] 45.2% | viability, T/C [28] 24.9% | viability, T/C [29] 65.7% | viability, T/C [30] 64.9% | viability, T/C [31] 60.3% | viability, T/C [32] 36.3% | viability, T/C [33] 34.9% | viability, T/C [34] 29.8%
5.19 nM: IC50 [6]
93.1 nM: IC50 [3]
73.8 nM: IC50 [4]

CC(C)n1nc(-c2ccc3oc(N)nc3c2)c2c(N)ncnc21 + CC(Nc1ncnc2nc[nH]c12)c1cc2cccc(Cl)c2c(=O)n1-c1ccccc1
87.7 nM: IC50 (curve of first compound, second compound 3.16 µM)
inactive: viability, T/C [11] 105% | viability, T/C [12] 101% | viability, T/C [13] 95% | viability, T/C [14] 99.1% | viability, T/C [15] 93.2% | viability, T/C [16] 62.2% | viability, T/C [17] 122% | viability, T/C [18] 103% | viability, T/C [19] 101% | viability, T/C [20] 91.9% | viability, T/C [21] 105% | viability, T/C [22] 50.5% | viability, T/C [23] 99% | viability, T/C [24] 89.1% | viability, T/C [25] 102% | viability, T/C [26] 97.1% | viability, T/C [27] 104% | viability, T/C [28] 59.5% | viability, T/C [29] 99.7% | viability, T/C [30] 98.4% | viability, T/C [31] 98.3% | viability, T/C [32] 112% | viability, T/C [33] 96% | viability, T/C [34] 51.1% | viability, T/C (second compound 3.16 µM, first compound 0.000316 µM) 104% | viability, T/C (second compound 3.16 µM, first compound 0.001 µM) 89.8% | viability, T/C (second compound 3.16 µM, first compound 0.00316 µM) 99.1% | viability, T/C (second compound 3.16 µM, first compound 0.01 µM) 101% | viability, T/C (second compound 3.16 µM, first compound 0.0316 µM) 103% | viability, T/C (second compound 3.16 µM, first compound 0.1 µM) 43.6% | viability, T/C (second compound 10 µM, first compound 0.000316 µM) 103% | viability, T/C (second compound 10 µM, first compound 0.001 µM) 96.9% | viability, T/C (second compound 10 µM, first compound 0.00316 µM) 93.5% | viability, T/C (second compound 10 µM, first compound 0.01 µM) 87% | viability, T/C (second compound 10 µM, first compound 0.0316 µM) 89.3% | viability, T/C (second compound 10 µM, first compound 0.1 µM) 33.7%
> 100 nM: IC50 [3] | IC50 [4] | IC50 [5] | IC50 [6]
70.7 nM: IC50 (curve of first compound, second compound 10 µM)

CC1(C)CCC(CN2CCN(c3ccc(C(=O)NS(=O)(=O)c4ccc(NCC5CCOCC5)c([N+](=O)[O-])c4)c(Oc4cnc5[nH]ccc5c4)c3)CC2)=C(c2ccc(Cl)cc2)C1
> 10000 nM and 7280 nM and 6400 nM: IC50 (curve of compound)
inactive: viability, T/C (compound 0.0316 µM) 105% [middle of 4 runs] | viability, T/C (compound 0.1 µM) 110% [middle of 4 runs] | viability, T/C (compound 0.316 µM) 101% [middle of 4 runs] | viability, T/C (compound 1 µM) 112% [middle of 4 runs] | viability, T/C (compound 3.16 µM) 130% [middle of 4 runs]

Cn1ncc(Cl)c1-c1cc(C(=O)NC(CN)Cc2cccc(F)c2)sc1Cl (configuration not stated) + CC(Nc1ccc2c(c1)OCCn1cc(N3C(=O)OCC3C(F)F)nc1-2)C(N)=O
1820 nM: IC50 [4]
inactive: viability, T/C [7] 100% | viability, T/C [8] 99% | viability, T/C (second compound 0.00316 µM, first compound 0.316 µM) 83.8% | viability, T/C (second compound 0.00316 µM, first compound 1 µM) 80.8% | viability, T/C (second compound 0.00316 µM, first compound 3.16 µM) 58.9% | viability, T/C (second compound 0.00316 µM, first compound 10 µM) 38.1% | viability, T/C [9] 107% | viability, T/C [10] 107% | viability, T/C (second compound 0.01 µM, first compound 0.316 µM) 100% | viability, T/C (second compound 0.01 µM, first compound 1 µM) 86.2% | viability, T/C (second compound 0.01 µM, first compound 3.16 µM) 48.5% | viability, T/C (second compound 0.01 µM, first compound 10 µM) 38.2% | viability, T/C [15] 118% | viability, T/C [16] 99.6% | viability, T/C (second compound 0.0316 µM, first compound 0.316 µM) 82.4% | viability, T/C (second compound 0.0316 µM, first compound 1 µM) 62% | viability, T/C (second compound 0.0316 µM, first compound 3.16 µM) 47.6% | viability, T/C (second compound 0.0316 µM, first compound 10 µM) 35.1% | viability, T/C [21] 96.6% | viability, T/C [22] 89.5% | viability, T/C (second compound 0.1 µM, first compound 0.316 µM) 81.8% | viability, T/C (second compound 0.1 µM, first compound 1 µM) 55.8% | viability, T/C (second compound 0.1 µM, first compound 3.16 µM) 43.9% | viability, T/C (second compound 0.1 µM, first compound 10 µM) 25.9% | viability, T/C [27] 96% | viability, T/C [28] 87.8% | viability, T/C (second compound 0.316 µM, first compound 0.316 µM) 57.5% | viability, T/C (second compound 0.316 µM, first compound 1 µM) 55.6% | viability, T/C (second compound 0.316 µM, first compound 3.16 µM) 38.5% | viability, T/C (second compound 0.316 µM, first compound 10 µM) 23.3% | viability, T/C [33] 89.4% | viability, T/C [34] 55.2% | viability, T/C (second compound 1 µM, first compound 0.316 µM) 45.4% | viability, T/C (second compound 1 µM, first compound 1 µM) 32.9% | viability, T/C (second compound 1 µM, first compound 3.16 µM) 33% | viability, T/C (second compound 1 µM, first compound 10 µM) 19.6%
5400 nM: IC50 [1]
1120 nM: IC50 [5]
3090 nM: IC50 [2]
2570 nM: IC50 [3]
193 nM: IC50 [6]
